The source of these data is US20160175302A1 (AB SCIENCE, priority 2014, published 2016).

Some results are limits rather than exact numbers.

For data set [1] the following is noted: clinically achievable concentrations, plasma; read-out: Cmax (reported / approximate, measured in plasma); cited from earlier work.
The subject of data set [2] is Gastric cancer cell line AGS. Put plainly: Colorimetric cell proliferation and viability assay (CellTiter-Blue), AGS. Conditions: 72 h, read-out: IC50, agent alone. (Resazurin is reduced to fluorescent resorufin, in cell work by metabolically active cells.)
Data set [3] concerns Gastric cancer cell line HGC-27. Briefly: Colorimetric cell proliferation and viability assay (CellTiter-Blue), HGC-27. The conditions noted are these: Homo sapiens, HGC-27, 72 h, read-out: IC50, agent alone.

By IC50 is commonly meant the concentration that inhibits the measured activity by half. Take `CCc1c2c(nc3ccc(OC(=O)N4CCC(N5CCCCC5)CC4)cc13)-c1cc3c(c(=O)n1C2)COC(=O)[C@]3(O)CC` [Irinotecan]: in data set [1], the Cmax was 1 to 10 µM. Moreover, the IC50 was 20 µM in data set [2] and more than 100 µM in data set [3].

For the compound `Cc1ccc(NC(=O)c2ccc(CN3CCN(C)CC3)cc2)cc1Nc1nc(-c2cccnc2)cs1` [masitinib, 4-(4-methylpiperazin-1-ylmethyl)-N-[4-methyl-3-(4-pyridin-3ylthiazol-2-ylamino)phenyl]benzamide], the IC50 in data set [2] and in data set [3] was 5 to 10 µM each time.

For the compound `COc1cc([C@@H]2c3cc4c(cc3[C@@H](O[C@@H]3O[C@@H]5CO[C@@H](C)O[C@H]5[C@H](O)[C@H]3O)[C@H]3COC(=O)[C@H]23)OCO4)cc(OC)c1O` [Etoposide], the Cmax in data set [1] is approximately 34 µM. In addition, the values for the IC50 in data set [2] and in data set [3] were 10 µM and 20 µM, respectively.

With `CC[C@]1(O)C[C@H]2CN(CCc3c([nH]c4ccccc34)[C@@](C(=O)OC)(c3cc4c(cc3OC)N(C=O)[C@H]3[C@@](O)(C(=O)OC)[C@H](OC(C)=O)[C@]5(CC)C=CCN6CC[C@]43[C@@H]65)C2)C1` [Vincristin], the IC50 in data set [2] was more than 1 µM; in data set [3], 0.1 to 1 µM.

For `O=c1[nH]cc(F)c(=O)[nH]1` [5-FU, 5-fluorouracil], the Cmax in data set [1] was 60 to 200 µM. Besides, the IC50 in data set [2] came out at 100 µM; in data set [3], 1000 µM.
